Literature values in US20150291659A1, “SOLOMONAMIDE ANALOGUE COMPOUNDS, PHARMACEUTICALS CONTAINING SOLOMONAMIDE ANALOGUE COMPOUNDS, AND PROCESSES FOR THE PREPARATION THEREOF” (COUNCIL OF SCIENTIFIC AND INDUSTRIAL RESEARCH, priority 2012, published 2015).

Test system: carrageenan induced paw edema
Conditions: carrageenan induced paw edema model, animal-models, 100 μg/kg

With `C[C@@H]1C(=O)NCC(=O)N[C@H](C)C(=O)Nc2cc(O)ccc2C(=O)[C@H](O)[C@@H](NC(=O)[C@@H](N)CO)[C@@H]1O` [Solomonamide A] as the compound, how does the reduction of inflammation read?
The reduction of inflammation was about 60%.
